Results on one molecule are retold here after article PMC6161288, “Bioavailability of Eurycomanone in Its Pure Form and in a Standardised Eurycoma longifolia Water Extract” (Pharmaceutics, 2018).

A short description of data set [1]: Plasma stability, dog. It is filed as in vitro ADME. To be noted: 5 µM, 37 °C, up to 4 h. Here is the method: (§1) The plasma stability was estimated by preparing 5 µM of eurycomanone in 600 µL plasma in triplicates. The plasma stability of eurycomanone was determined in five types of plasma (mice, rat, dog, monkey, and human). The reaction was kept at 37 °C and ACN (100 µL) was added at timepoints 0, 30 min, and 1, 2, and 4 h to the reaction mixture (100 µL). The supernatant (10,000 rpm, 10 min, 4 °C) was collected and analysed by LC-MS/MS. The standards (propantheline bromide and enalapril) were analysed in triplicates.

Data set [2] in a line: Plasma protein binding (rapid equilibrium dialysis), mice. The class given is in vitro ADME. The conditions noted are these: mouse, pH 7.4, 37 °C, read-out: percentage bound to plasma protein (converted). The method, then:
(§2) The ability of eurycomanone to bind plasma protein was analysed in five types of plasma (mice, rat, dog, monkey, and human). Each type of plasma was spiked with eurycomanone (1 mM) to make the 10 µM test concentration of eurycomanone in the plasma. Equilibrium dialysis buffer (500 µL) at pH 7.4 was added to the right chamber in rapid equilibrium dialysis (RED), while the spiked plasma (300 µL) was added to the left chamber. The Teflon base plate was covered with aluminium foil and left on the shaking incubator at 37 °C for 4 h. The matrix was balanced by mixing 100 µL of the equilibrium buffer with the spiked plasma from the left chamber in RED before adding the stop solution (350 µL) to precipitate out the protein. The supernatant (10,000 rpm, 10 min, 4 °C) was collected and analysed using LC-MS/MS. The standards (propranolol, warfarin, and acebutalol) were analysed in duplicates.
(In equilibrium dialysis only unbound substance equilibrates across the membrane.)

Data set [3] is described as follows: Parallel artificial membrane permeability assay (PAMPA). It is filed as in vitro ADME. The conditions noted are these: pH 7.4, 18 h, room temperature, read-out: permeation through artificial membrane (PAMPA). The method, then:
Eurycomanone was added to Pion buffer (Pion Inc., Billerica, MA, USA) pH 7.4 to make a 10 µM working solution. Five microlitres of the lipid mix was applied on the membrane and allowed to dry for 10 min. The working solution (200 µL) was added to the donor plate and Pion buffer (200 µL) were added to the receiver plate. The plate was kept in a moist chamber and left for 18 h at room temperature. The solution from both the donor and receiver plate and the working solution was analysed using LC-MS/MS. This test was carried out in triplicates using propranolol, atenolol, and carbamazepine as standards. The test concentration for eurycomanone is […].
For orientation: The PAMPA barrier holds no transporters, so it reflects passive diffusion.

A short description of data set [4]: Plasma stability, rat. It is filed as in vitro ADME. To be noted: 5 µM, 37 °C, up to 4 h. The method, then: as §1
A short description of data set [5]: Rat liver hepatocyte stability. The conditions noted are these: rat liver hepatocytes. It is filed as in vitro ADME.
The nature of data set [6]: Plasma protein binding (rapid equilibrium dialysis), human. The class given is in vitro ADME. The conditions noted are these: pH 7.4; human plasma, 10 µM, 37 °C, 4 h; read-out: percentage bound to plasma protein (converted). Here is the method:
as §2

Data set [7] deals with plasma protein. The description is as above. It is filed as in vitro ADME. The conditions noted are these: range over all species' plasma apart from dog (rat, monkey, mice, human). The method, then:
as §2

Data set [8] can be described thus: Plasma stability, monkey. It is filed as in vitro ADME. To be noted: 5 µM, 37 °C, up to 4 h, compared with human, rat and dog plasma. Here is the method:
as §1

Data set [9] can be described thus: Plasma stability, human. It is filed as in vitro ADME. To be noted: 5 µM, 37 °C, up to 4 h. The method, then:
as §1

Data set [10] can be described thus: Plasma protein binding (rapid equilibrium dialysis), monkey. The class given is in vitro ADME. To be noted: pH 7.4, 37 °C, read-out: percentage bound to plasma protein (converted). Here is the method:
as §2

Details of data set [11]: method as in PMID 27572280. To be noted: cited from earlier work.
Data set [12] in a line: Plasma stability, mice. The class given is in vitro ADME. To be noted: 5 µM, 37 °C, up to 4 h, compared with human, rat and dog plasma. Here is the method:
as §1

A short description of data set [13]: Chemical stability in simulated gastrointestinal fluids. To be noted: GSF (pH 2), FESSIF (pH 5.0), FASSIF (pH 6.5). The class given is physicochemical. The method, then: The chemical stability of eurycomanone was estimated in gastric simulated fluid (GSF), pH 2; fasted simulated intestinal fluid (FASSIF), pH 6.5; fed simulated intestinal fluid (FESSIF), pH 5.0; and in 150 mM NaHCO3 at pH 9.2. Eurycomanone (3 µL) at 5 mM was added to 297 µL of the respective buffers. The mixture (100 µL) was added to 100 µL of ACN at time points 1 and 3 h and sent for LC-MS/MS analysis.

The nature of data set [14]: Plasma protein binding (rapid equilibrium dialysis), rat. It is filed as in vitro ADME. The conditions noted are these: rat, plasma, pH 7.4, rat plasma. Here is the method: as §2
The subject of data set [15] is plasma protein. The data set is described as above. To be noted: rat plasma, 10 µM, 37 °C, 4 h. The class given is in vitro ADME. The method, then:
as §2

The half-life is how long it takes for the measured level to halve. What is called Cmax is the highest concentration seen after dosing. As to `C=C1[C@@H](O)[C@]2(O)OC[C@]34[C@H]2[C@@]2(C)[C@H](O)C(=O)C=C(C)[C@@H]2C[C@H]3OC(=O)[C@H](O)[C@@]14O` [Eurycomanone], the plasma stability entry is on record as “highly stable” in data set [1]; “highly stable” in [4]; “slightly lower” in data set [8]; “highly stable” in [9]; “slightly lower” in data set [12]. Also, the fraction unbound at 4 h, 10 µM is 0.784 in data set [2]; 0.611 in data set [6]; 0.646 in data set [10]; 0.699 in data set [14] (10 µM, 37 °C, 4 h, read-out: percentage bound to plasma protein (converted)); 0.7 in [14] (read-out: unbound fraction). Also, the Papp at 18 h, 25 µM in [3] was determined as 0.78 ×10⁻⁶ cm/s. Moreover, in data set [5], the “Half-life (t1/2)” value is greater than 1.5 h. Further, the half-life in data set [5] was greater than 1.5 h. Besides, in [5] (read-out: Intrinsic clearance (Clint)), the hepatocyte CLint was 0.67 µL/min/1e6 cells. Moreover, the “fraction of unbound eurycomanone” value in data set [7] is listed as 61.1–78.4%. For the same molecule, the Cmax in data set [11] is given as 40.43 ng/mL. In addition, the figures for the “chemical stability (percentage remaining after 3 h of incubation)” value in [13] and in data set [13] (listed as eurycomanone) were “high stability” and “chemically stable across all pH values tested”, respectively. Besides, in [15], the “percentage bound to plasma protein” value amounted to 30%.
